Experimental data published in patent US20240043439A1, “COMPOUNDS AS C5AR INHIBITORS” (Kira Pharmaceuticals (Suzhou) Ltd., priority 2020, published 2024).
pIC50: −log10 of the molar value.

Tests used:
C5aR [1] = molecular target: T1, C5aR (Homo sapiens (Human), UniProt P21730); experiment: Calcium mobilization (U937/C5aR or HEK293/C5aR cells, FLIPR); format: cell-based; conditions: agonist human C5a at EC80, FLIPR
How it was run: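 FLIPR calcium-flux read-out using Fluo-4 Direct-loaded C5aR-expressing U937 or HEK293 cells stimulated with human C5a at its EC80. Compound was applied for 60 min before dye loading (50 min at 37 °C plus 10 min at room temperature) and agonist addition.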

C5aR [2] = molecular target: T1, C5aR; experiment: Inhibition of C5a-C5aR binding determined by cell migration assay (U937/C5aR cells); format: cell-based; conditions: U937/C5aR cell migration towards human C5a, 180 min
Experimental: Migration assay was performed by using polycarbonate membrane with 3.0 µm pore (Corning). U937/C5aR cells were collected and washed twice by PBS; cells were suspended in Hank's balanced salt solution (HBSS)+1% FBS buffer at the density of 6×10^6 cells/ml. Cells were premixed with compound and added to insert well, ligand human C5a and compound were added to bottom well in order, gently mix, incubate for 30 min at 37° C., […]. Put insert plate into bottom well, migrate for 180 min at 37° C., […]. Gently remove the insert well, add 50 μl CellTiter-Glo (Promega), gently shaking for 5 min at room temperature, transfer 150 μl mixture to black plate and read luminescence intensity by
microplate reader (BioTek).

[3] = molecular target: human C5a receptor (C5aR) (Homo sapiens (Human), UniProt P21730); experiment: Inhibition of C5a-C5aR binding (biotinylated human C5a, U937/C5aR cells, FACS)
How it was run: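 Binding read by flow cytometry as FITC-streptavidin signal (30 min on ice) on washed cells after a 120 min on-ice incubation of compound with biotinylated human C5a (30 nM working solution). Cells used were C5aR-transfected U937, suspended at 3×10^6 cells/ml in PBS containing 0.1% BSA.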

T1 sequence (P21730 whole entry): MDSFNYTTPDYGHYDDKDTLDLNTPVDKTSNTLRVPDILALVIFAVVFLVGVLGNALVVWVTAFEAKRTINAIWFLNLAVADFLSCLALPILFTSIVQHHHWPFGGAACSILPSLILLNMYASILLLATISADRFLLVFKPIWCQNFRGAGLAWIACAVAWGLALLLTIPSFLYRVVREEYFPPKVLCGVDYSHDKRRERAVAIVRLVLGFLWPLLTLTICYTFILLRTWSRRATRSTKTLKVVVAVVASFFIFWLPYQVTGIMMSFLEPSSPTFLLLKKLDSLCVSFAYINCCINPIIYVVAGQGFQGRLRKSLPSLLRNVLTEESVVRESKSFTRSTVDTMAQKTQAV
Sequence of human C5a receptor (C5aR) (P21730 whole entry): as above

Row | pIC50 (C5aR [1]) | pIC50 (C5aR [2]) | pIC50 [3] | SMILES
1 | 5.00 to 5.70 | 6.30 to 7.30 | 5.70 to 6.30 | Cc1ccc(NC(=O)[C@H]2CC[C@@H]3CCc4cccc(F)c4C(=O)N3C2c2ccc(NC3CCCC3)cc2)cc1C(F)(F)F (relative stereo) [Compound 41, cis-4-(4-(cyclopentylamino)phenyl)-7-fluoro-N-(4-methyl-3-(trifluoromethyl)phenyl)-6-oxo-1,2,3,4,6,11,12,12a-octahydrobenzo[e]pyrido[1,2-a]azepine-3-carboxamide]
2 | 5.70 to 6.30 | > 7.30 | > 7.30 | Cc1cccc(F)c1C(=O)N1[C@@H]2CCC[C@@H]2C[C@H](C(=O)Nc2ccc3c(ccn3C)c2)[C@@H]1c1ccc(NC2CCOCC2)cc1 [Compound 98, (2R,3S,4aR,7aR)-1-(2-fluoro-6-methylbenzoyl)-N-(1-methyl-1H-indol-5-yl)-2-(4-((tetrahydro-2H-pyran-4-yl)amino)phenyl)octahydro-1H-cyclopenta[b]pyridine-3-carboxamide]
3 | 6.30 to 7.30 | 6.30 to 7.30 | > 7.30 | Cc1cccc(F)c1C(=O)N1[C@@H]2CCC[C@@H]2C[C@H](C(=O)Nc2ccc3ncoc3c2)[C@@H]1c1ccc(NC2CCCC2)cc1 (racemic) [Compound 67, cis-N-(benzo[d]oxazol-6-yl)-2-(4-(cyclopentylamino)phenyl)-1-(2-fluoro-6-methylbenzoyl)octahydro-1H-cyclopenta[b]pyridine-3-carboxamide]
4 | 5.70 to 6.30 | 6.30 to 7.30 | 6.30 to 7.30 | Cc1cccc(F)c1C(=O)N1[C@@H]2CCC[C@@H]2C[C@H](C(=O)Nc2ccc3cnn(C4COC4)c3c2)[C@@H]1c1ccc(NC2CCCC2)cc1 (racemic) [Compound 59, cis-2-(4-(cyclopentylamino)phenyl)-1-(2-fluoro-6-methylbenzoyl)-N-(1-(oxetan-3-yl)-1H-indazol-6-yl)octahydro-1H-cyclopenta[b]pyridine-3-carboxamide]
5 | 5.00 to 5.70 | 6.30 to 7.30 | > 7.30 | Cc1cccc(F)c1C(=O)N1[C@@H]2CCC[C@@H]2C[C@H](C(=O)Nc2ccc(N(C)C)cc2)[C@@H]1c1ccc(NC2CCOCC2)cc1 [Compound 94, (2R,3S,4aR,7aR)-N-(4-(dimethylamino)phenyl)-1-(2-fluoro-6-methylbenzoyl)-2-(4-((tetrahydro-2H-pyran-4-yl)amino)phenyl)octahydro-1H-cyclopenta[b]pyridine-3-carboxamide]

Row | SMILES | pIC50 (C5aR [1]) | pIC50 (C5aR [2]) | pIC50 [3]
6 | Cc1cccc(F)c1C(=O)N1C(c2ccc(NC3CCCC3)cc2)C(C(=O)Nc2ccc3c(cnn3C)c2)C[C@@H]2CCC[C@@H]21 (relative stereo) [Compound 147, cis-2-(4-(cyclopentylamino)phenyl)-1-(2-fluoro-6-methylbenzoyl)-N-(1-methyl-1H-indazol-5-yl)octahydro-1H-cyclopenta[b]pyridine-3-carboxamide] | 6.30 to 7.30 | 6.30 to 7.30 | > 7.30
7 | Cc1cccc(F)c1C(=O)N1C(c2ccc(NC3CCCC3)cc2)C(C(=O)Nc2cnc3cnn(C)c3c2)C[C@@H]2CCC[C@@H]21 (relative stereo) [Compound 78, cis-2-(4-(cyclopentylamino)phenyl)-1-(2-fluoro-6-methylbenzoyl)-N-(1-methyl-1H-pyrazolo[4,3-b]pyridin-6-yl)octahydro-1H-cyclopenta[b]pyridine-3-carboxamide] | 5.70 to 6.30 | 6.30 to 7.30 | 6.30 to 7.30
8 | Cc1cccc(F)c1C(=O)N1C(c2ccc(NC3CCCC3)cc2)C(C(=O)Nc2ccc3c(cnn3C)c2)C[C@@H]2COC[C@@H]21 (relative stereo) [Compound 121, cis-2-(4-(cyclopentylamino)phenyl)-1-(2-fluoro-6-methylbenzoyl)-N-(1-methyl-1H-indazol-5-yl)octahydrofuro[3,4-b]pyridine-3-carboxamide] | 6.30 to 7.30 | 6.30 to 7.30 | 6.30 to 7.30
